What was measured:
[1] = system: A2780 (ovarian carcinoma); test: SRB cytotoxicity assay, 72 h; type: cell-based, human; settings: Homo sapiens; A2780, 72 h, cut-off 30 µM; read-out: EC50
Experimental: (§1) The cytotoxicity of compounds 1–20 was evaluated by means of a colorimetric sulforhodamine B (SRB) assay. For all compounds, the EC50 values were determined for the human tumor cell lines A375 (malignant melanoma), HT29 (colorectal carcinoma), MCF-7 (breast carcinoma), A2780 (ovarian carcinoma), FaDu (hypopharyngeal carcinoma), and NIH 3T3 (non-malignant mouse fibroblasts).
(§2) In short, exponentially growing cells were seeded into 96-well plates on day 0 at the appropriate cell densities to prevent confluence of the cells during the period of experiment. After 24 h, the cells were treated with serial dilutions of the compounds (0–30 µM) for 72 h. The final concentration of DMSO never exceeded 0.5%, which was non-toxic to the cells. After a 72 h treatment, the supernatant medium from the 96-well plates was discarded, and the cells were fixed with 10% TCA. For a thorough fixation, the plates were allowed to rest at 4 °C. After fixation, the cells were washed in a strip washer. The washing was done four times with water using alternate dispensing and aspiration procedures. The plates were then dyed with 100 µL of 0.4% SRB for about 20 min. After dying, the plates were washed with 1% acetic acid to remove the excess of the dye and allowed to air-dry overnight. Tris base solution (200 µL, 10 mM) was added to each well and absorbance was measured at λ = 570 nm (using a 96 well plate reader, Tecan Spectra, Crailsheim, Germany). The percentages of surviving cells relative to untreated controls were determined.

[2] = system: A375 (malignant melanoma); test: SRB cytotoxicity assay, 72 h; type: cell-based, human; settings: Homo sapiens, A-375, 72 h, A375, 72 h, cut-off 30 µM; read-out: EC50
Experimental: as §1, §2

[3] = system: FaDu (hypopharyngeal carcinoma); test: SRB cytotoxicity assay, 72 h; type: cell-based, human; settings: Homo sapiens, cut-off 30 µM, read-out: EC50
Experimental: as §1, §2

[4] = system: HT29 (colorectal carcinoma); test: SRB cytotoxicity assay, 72 h; type: cell-based, human; settings: Homo sapiens, HT-29; HT29, 72 h, cut-off 30 µM; read-out: EC50
Experimental: as §1, §2

MCF-7 (breast carcinoma) = test: SRB cytotoxicity assay, 72 h; type: cell-based, human; settings: Homo sapiens, MCF7; MCF-7, 72 h, cut-off 30 µM; read-out: EC50
Experimental: as §1, §2

[5] = system: NIH 3T3 (non-malignant mouse fibroblasts); test: SRB cytotoxicity assay, 72 h; type: cell-based; settings: Mus musculus, NIH3T3; NIH 3T3, 72 h, cut-off 30 µM; read-out: EC50
Experimental: as §1, §2

Leukemia subpanel = test: cells; settings: Homo sapiens; for IC (TGI): 48 h, read-out: TGI MG_MID; for GI50: read-out: GI50 MG_MID
[6] = system: MDA-MB-468 (Breast cancer); test: cells; settings: Homo sapiens; for GI50: MDA-MB-468; for IC (TGI): MDA-MB-468, 48 h, read-out: TGI; for CC50: MDA-MB-468, read-out: LC50
Colon Cancer subpanel = test: NCI-60 screen, subpanel; settings: Homo sapiens; for IC (TGI): 48 h, read-out: TGI MG_MID; for GI50: read-out: GI50 MG_MID; for CC50: read-out: LC50 MG_MID
CCRF-CEM (Leukemia) = test: NCI-60 screen (SRB, 48 h); settings: Homo sapiens
MOLT-4 (Leukemia) = test: NCI-60 screen (SRB, 48 h); settings: Homo sapiens; for GI50: MOLT-4
[7] = system: A549/ATCC (NSC lung cancer); test: NCI-60 screen (SRB, 48 h); settings: Homo sapiens; for GI50: A549
HOP-92 (NSC lung cancer) = test: NCI-60 screen (SRB, 48 h); settings: Homo sapiens; for GI50: HOP-92; for IC (TGI): HOP-92, 48 h, read-out: TGI
[8] = system: NCI-H23 (NSC lung cancer); test: NCI-60 screen (SRB, 48 h); settings: Homo sapiens; for GI50: NCI-H23; for IC (TGI): NCI-H23, 48 h, read-out: TGI
HCT-116 (Colon cancer) = test: NCI-60 screen (SRB, 48 h); settings: Homo sapiens; for GI50: HCT-116; for activity at 10 µM / IC (TGI): HCT-116, 48 h; for activity at 10 µM: read-out: Growth % of the Most Sensitive Cell Lines; for IC (TGI): read-out: TGI
HCT-15 (Colon cancer) = test: NCI-60 screen (SRB, 48 h); settings: Homo sapiens; for GI50: HCT-15; for IC (TGI): HCT-15, 48 h, read-out: TGI
SF-295 (CNS cancer) = test: NCI-60 screen (SRB, 48 h); settings: Homo sapiens; for GI50: SF-295; for IC (TGI): SF-295, 48 h, read-out: TGI
SNB-19 (CNS cancer) = test: NCI-60 screen (SRB, 48 h); settings: Homo sapiens; for GI50: SNB-19; for IC (TGI): SNB-19, 48 h, read-out: TGI
IGROV1 (Ovarian cancer) = test: NCI-60 screen (SRB, 48 h); settings: Homo sapiens; for GI50: IGROV-1; for IC (TGI): IGROV-1, 48 h, read-out: TGI
OVCAR-5 (Ovarian cancer) = test: NCI-60 screen (SRB, 48 h); settings: Homo sapiens; for GI50: OVCAR-5
CAKI-1 (Renal cancer) = test: NCI-60 screen (SRB, 48 h); settings: Homo sapiens; for GI50: CAKI-1
SN12C (Renal cancer) = test: NCI-60 screen (SRB, 48 h); settings: Homo sapiens; for IC (TGI): 48 h, read-out: TGI
TK-10 (Renal cancer) = test: NCI-60 screen (SRB, 48 h); settings: for GI50: TK-10; for IC (TGI): TK-10, 48 h, read-out: TGI
[9] = system: MDA-MB-31/ATCC (Breast cancer); test: NCI-60 screen (SRB, 48 h); settings: Homo sapiens; for IC (TGI): 48 h, read-out: TGI

## C[C@H]1[C@H](C)CC[C@]2(C(=O)Nc3ccc4ncccc4c3)CC[C@]3(C)C(=CC[C@@H]4[C@@]5(C)CCCNC(C)(C)[C@@H]5CC[C@]43C)[C@H]12 [Compound 14]
[1]
  EC50: 1.8 ± 0.1 µM
[2]
  EC50: 1.57 ± 0.8 µM
[3]
  EC50: 1.79 ± 0.2 µM
[4]
  EC50: 1.55 ± 0.1 µM
MCF-7 (breast carcinoma)
  EC50: 1.64 ± 0.1 µM
[5]
  EC50: 1.69 ± 0.1 µM
Leukemia subpanel
  IC (TGI): 3.63 µM
  GI50: 1.58 µM
[6]
  GI50: 1.74 µM
  IC (TGI): 3.45 µM
  CC50: 6.87 µM
Colon Cancer subpanel
  IC (TGI): 3.37 µM
  GI50: 1.66 µM
  CC50: 6.18 µM
CCRF-CEM (Leukemia)
  GI50: 1.67 µM
MOLT-4 (Leukemia)
  GI50: 1.42 µM
[7]
  GI50: 1.81 µM
HOP-92 (NSC lung cancer)
  GI50: 1.54 µM
  IC (TGI): 3.14 µM
[8]
  GI50: 1.76 µM
  IC (TGI): 3.39 µM
HCT-116 (Colon cancer)
  GI50: 1.6 µM
  activity at 10 µM: -100%
  IC (TGI): 3.11 µM
HCT-116 (Colon cancer); HCT-116, read-out: LC50
  CC50: 6.05 µM
HCT-15 (Colon cancer)
  GI50: 1.59 µM
  IC (TGI): 3.15 µM
SF-295 (CNS cancer)
  GI50: 1.65 µM
  IC (TGI): 3.17 µM
SNB-19 (CNS cancer)
  GI50: 1.85 µM
  IC (TGI): 3.4 µM
IGROV1 (Ovarian cancer)
  GI50: 1.7 µM
  IC (TGI): 3.37 µM
IGROV1 (Ovarian cancer); IGROV-1, read-out: LC50
  CC50: 6.69 µM
OVCAR-5 (Ovarian cancer)
  GI50: 1.68 µM
CAKI-1 (Renal cancer)
  GI50: 1.56 µM
SN12C (Renal cancer)
  GI50: 1.73 µM
  IC (TGI): 3.33 µM
TK-10 (Renal cancer); Homo sapiens
  GI50: 1.69 µM
  IC (TGI): 3.2 µM
[9]
  GI50: 1.8 µM
  IC (TGI): 3.4 µM

## C=C(C)[C@@H]1CC[C@]2(C(=O)N[C@H](CO)Cc3ccccc3)CC[C@]3(C)[C@H](CC[C@@H]4[C@@]5(C)CCCNC(C)(C)[C@@H]5CC[C@]43C)[C@@H]12 [Compound 11]
[1]
  EC50: 0.78 ± 0.4 µM
[2]
  EC50: 1 ± 0.1 µM
[3]
  EC50: 0.88 ± 0.1 µM
[4]
  EC50: 1.02 ± 0.03 µM
MCF-7 (breast carcinoma)
  EC50: 1.17 ± 0.2 µM
[5]
  EC50: 1.23 ± 0.3 µM
Leukemia subpanel
  IC (TGI): 1.03 µM
  GI50: 0.34 µM
[6]
  GI50: 1.52 µM
  IC (TGI): 3.03 µM
  CC50: 6.01 µM
Colon Cancer subpanel
  IC (TGI): 2.18 µM
  GI50: 0.96 µM
  CC50: 3.76 µM
CCRF-CEM (Leukemia)
  GI50: 0.25 µM
CCRF-CEM (Leukemia); 48 h, read-out: TGI
  IC (TGI): 0.74 µM
MOLT-4 (Leukemia)
  GI50: 0.67 µM
MOLT-4 (Leukemia); MOLT-4, 48 h, read-out: TGI
  IC (TGI): 2.3 µM
[7]
  GI50: 0.96 µM
[7]; A549, 48 h, read-out: TGI
  IC (TGI): 2.45 µM
HOP-92 (NSC lung cancer)
  GI50: 1.42 µM
  IC (TGI): 3.01 µM
HOP-92 (NSC lung cancer); HOP-92, read-out: LC50
  CC50: 6.42 µM
[8]
  GI50: 1.6 µM
  IC (TGI): 3.17 µM
HCT-116 (Colon cancer)
  GI50: 0.31 µM
  activity at 10 µM: -94.8%
  IC (TGI): 1.25 µM
HCT-15 (Colon cancer)
  GI50: 0.97 µM
  IC (TGI): 2.32 µM
SF-295 (CNS cancer)
  GI50: 1.67 µM
  IC (TGI): 3.21 µM
SNB-19 (CNS cancer)
  GI50: 1.17 µM
  IC (TGI): 2.72 µM
IGROV1 (Ovarian cancer)
  GI50: 1.83 µM
  IC (TGI): 3.61 µM
OVCAR-5 (Ovarian cancer)
  GI50: 1.69 µM
OVCAR-5 (Ovarian cancer); OVCAR-5, 48 h, read-out: TGI
  IC (TGI): 3.18 µM
CAKI-1 (Renal cancer)
  GI50: 1.49 µM
CAKI-1 (Renal cancer); CAKI-1, 48 h, read-out: TGI
  IC (TGI): 2.89 µM
CAKI-1 (Renal cancer); CAKI-1, read-out: LC50
  CC50: 5.6 µM
SN12C (Renal cancer)
  GI50: 1.81 µM
  IC (TGI): 3.55 µM
TK-10 (Renal cancer); Homo sapiens
  GI50: 1.61 µM
  IC (TGI): 3.08 µM
TK-10 (Renal cancer); Homo sapiens, TK-10, read-out: LC50
  CC50: 5.89 µM
TK-10 (Renal cancer); TK-10, 1 dose 10 µM
  Growth % of the Most Sensitive Cell Lines: −94.69%
[9]
  GI50: 1.34 µM
  IC (TGI): 2.77 µM

From PMC7914897, “Cytotoxic Potential of a-Azepano- and 3-Amino-3,4-SeCo-Triterpenoids” (International Journal of Molecular Sciences, 2021)
